This is an account of results in patent publication US12354130B2, “Combination therapies” (Genentech, Inc., priority 2012, dated 2025).

Where two headings read alike, the source gives them in different places.

For series [1] the following is noted: cited from earlier work.
The test system of series [2] is unresectable or metastatic melanoma that is BRAFV600E mutation-positive. Particulars: cited from earlier work.
Series [3] has as its system patients with BRAF^V600 mutation-positive, unresectable locally advanced or metastatic melanoma.
Excerpt: This multicenter study has 2 stages: a dose-escalation stage and a cohort-expansion stage.
Key inclusion criteria include the presence of the V600E mutation in melanoma tumor tissue using the Cobas® 4800 BRAF V600 mutation test, measurable disease per Response Evaluation Criteria in Solid Tumors (RECIST) v1.1, ECOG PS of ≤1, and adequate hematologic and end organ function as assessed through key laboratory measures. Patients were excluded if they had: ocular pathology or risk factors that predisposes to retinal vein occlusion; QTc>450 ms; or active CNS metastasis. Patients treated with stereotactic radiation therapy or surgery were eligible if stable for >3 weeks prior to treatment.
Each treatment cycle was 28 days.
Dose-escalation used the standard 3+3 design and proceeded in increments, taking into account the safety and tolerability of the combination.
Eligible patients had BRAF^V600-mutated unresectable or metastatic melanoma, and ECOG PS 0-1. Patients were either naïve to vemurafenib or had disease progression on vemurafenib. The study consisted of dose-escalation and expansion stages. […] Primary endpoints were maximum tolerated dose (MTD), dose-limiting toxicity (DLT) of both drugs, safety, and PK.
For series [4] the following is noted: cited from earlier work. This is another data set of the same source.
The mark [5] stands for this setting: compared with dacarbazine (Chapman et al. 2011).
The mark [6] stands for this setting: during combination treatment, as of 6 Jul. 2012.

For the compound `O=C(c1ccc(F)c(F)c1Nc1ccc(I)cc1F)N1CC(O)([C@@H]2CCCCN2)C1` [GDC-0973, [3,4-difluoro-2-[(2-fluoro-4-iodophenyl)amino]phenyl][3-hydroxy-3-[(2S)-2-piperidinyl]-1-azetidinyl]methanone], the “single-agent MTD” value in series [1] (21/7 schedule) is given as 60 mg.
Turning to `CCCS(=O)(=O)Nc1ccc(F)c(C(=O)c2c[nH]c3ncc(-c4ccc(Cl)cc4)cc23)c1F` [vemurafenib, propane-1-sulfonic acid {3-[5-(4-chlorophenyl)-1H-pyrrolo[2,3-b]pyridine-3-carbonyl]-2,4-difluoro-phenyl}-amide], the “single-agent MTD” value in series [1] (in vivo) is 960 mg BID. The response rates result in series [2] (Flaherty 2010, Chapman 2011, Sosman 2012) is on record as “greater than 50%”. For the same compound, in series [2] (setting [5]), the “decrease in the risk of disease progression or death” value was 74% and the “reduction in the risk of death” value is given as 63%. In addition, the dose-limiting toxicity event entry in series [3] (cohort 1 (vemurafenib 720 mg BID+GDC-0973 60 mg QD 14/14), led to discontinuation of vemurafenib) is “Grade 3 QT prolongation”. In addition, the dose-limiting toxicity event entry in series [3] (cohort 1D) was “Grade 3 arthralgia”. In series [3] (setting [6]), the “discontinuation of the drug because of QT interval prolongation” value is 1 patient, the “primary dose reduction of the drug because of LFT abnormality” value came to 1 patient, the “primary dose reduction of the drug because of central serous retinopathy” value is given as 1 patient and the “primary dose reduction of the drug because of rash” value is on record as 1 patient. Further, in series [3] (setting [6]), the “temporary interruption of the drug because of arthralgia” value is reported as 3 patients, the “temporary interruption of the drug because of liver function test (LFT) abnormalities” value was determined as 3 patients and the “temporary interruption of the drug because of rash” value was 8 patients. In series [4], the “dissolution rate of the amorphous form as compared to the crystalline form” value is “improved dissolution rate” and the “solubility in water of the amorphous form as compared with the crystalline form” value was “greater solubility in water”.
